Legend:
[1] = test system: corn; experiment: Test B pre/postemergence corn; assay type: in vivo, Zea mays; conditions: for Corn plant response rating: scale of 0 to 10 where 0 is no effect and 10 is complete control
Procedure, shortened: (§1)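 Test chemicals in a non-phytotoxic solvent mixture with surfactant were sprayed preemergence onto planted seeds and postemergence onto plants 2 to 18 cm tall (1- to 4-leaf stage). After twelve to sixteen days in a greenhouse, injury was visually rated against untreated controls from 0 (no effect) to 10 (complete control).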

[2] = test system: rice; experiment: Test B flood test rice; assay type: in vivo, Oryza sativa
Procedure, shortened: (§2)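 Flood test on plants grown to the 2-leaf stage; treated plants kept in greenhouse twelve to sixteen days, then visually rated against controls on a 0 (no effect) to 10 (complete control) scale.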

[3] = test system: soybean; experiment: Test B pre/postemergence soybean; assay type: in vivo, Glycine max; conditions: for Soybean plant response rating: scale of 0 to 10 where 0 is no effect and 10 is complete control
Procedure, shortened: as §1

[4] = test system: cocklebur; experiment: Test B pre/postemergence cocklebur; assay type: in vivo, Xanthium strumarium; conditions: for Cocklebur plant response rating: scale of 0 to 10 where 0 is no effect and 10 is complete control
Procedure, shortened: as §1

[5] = test system: pigweed; experiment: Test B pre/postemergence pigweed; assay type: in vivo, Amaranthus retroflexus; conditions: for Redroot pigweed plant response rating: scale of 0 to 10 where 0 is no effect and 10 is complete control
Procedure, shortened: as §1

[6] = test system: crabgrass; experiment: Test B pre/postemergence crabgrass; assay type: in vivo, Digitaria sanguinalis; conditions: for Crabgrass plant response rating: scale of 0 to 10 where 0 is no effect and 10 is complete control
Procedure, shortened: as §1

[7] = test system: wild oat; experiment: Test B pre/postemergence wild oat; assay type: in vivo, Avena fatua; conditions: for Wild oats plant response rating: scale of 0 to 10 where 0 is no effect and 10 is complete control
Procedure, shortened: as §1

[8] = test system: bamyardgrass; experiment: Test B flood test barnyardgrass; assay type: in vivo, Echinochloa crus-galli
Procedure, shortened: as §2

[9] = test system: velvetleaf; experiment: Test B pre/postemergence velvetleaf; assay type: in vivo, Abutilon theophrasti; conditions: for Velvetleaf plant response rating: scale of 0 to 10 where 0 is no effect and 10 is complete control
Procedure, shortened: as §1

[10] = test system: wheat; experiment: Test B pre/postemergence wheat; assay type: in vivo, Triticum aestivum; conditions: for Wheat plant response rating: scale of 0 to 10 where 0 is no effect and 10 is complete control
Procedure, shortened: as §1

[11] = test system: sugar beet; experiment: Test B pre/postemergence sugar beet; assay type: in vivo, Beta vulgaris; conditions: for Sugarbeets plant response rating: scale of 0 to 10 where 0 is no effect and 10 is complete control
Procedure, shortened: as §1

[12] = test system: morningglory; experiment: Test B pre/postemergence morningglory; assay type: in vivo, Ipomoea hederacea; conditions: for Morningglory plant response rating: scale of 0 to 10 where 0 is no effect and 10 is complete control
Procedure, shortened: as §1

[13] = test system: giant foxtail; experiment: Test B pre/postemergence giant foxtail; assay type: in vivo, Setaria faberii; conditions: for Giant foxtail plant response rating: scale of 0 to 10 where 0 is no effect and 10 is complete control
Procedure, shortened: as §1

[14] = test system: purple nutsedge; experiment: Test B pre/postemergence purple nutsedge; assay type: in vivo, Cyperus rotundus; conditions: for Nutsedge plant response rating: scale of 0 to 10 where 0 is no effect and 10 is complete control
Procedure, shortened: as §1

[15] = test system: rape; experiment: Test B pre/postemergence rape; assay type: in vivo, Brassica napus; conditions: for Rape plant response rating: scale of 0 to 10 where 0 is no effect and 10 is complete control
Procedure, shortened: as §1

[16] = test system: duck salad; experiment: Test B flood test duck salad; assay type: in vivo, Heteranthera limosa
Procedure, shortened: as §2

[17] = Postemergence, Rate 125 g/ha, scale 0 to 10, 0 is no effect, 10 is complete control
[18] = Preemergence, Rate 62 g/ha, scale 0 to 10 (0 no effect, 10 complete control)
[19] = Rate 500 g/ha, Postemergence, scale 0 to 10, 0 no effect, 10 complete control
[20] = Postemergence (flood test), Rate 125 g/ha, scale 0 to 10, 0 is no effect, 10 is complete control
[21] = Rate 62 g/ha, Postemergence (flood test species), scale of 0 to 10 where 0 is no effect and 10 is complete control
[22] = Rate 500 g/ha, listed under Postemergence (flood test species), scale 0 to 10, 0 no effect, 10 complete control

CC(C)N(C(=O)n1oc(=O)n(C2CCC2)c1=O)c1ccccc1 [Compound 348]
Plant response rating, Corn [1, 17]: 0
Plant response rating, Corn [1, 18]: 0
Corn plant response rating (0 to 10 scale) ([1]; Preemergence, Rate 125 g/ha): 2
Corn plant response rating ([1]; Preemergence, Rate 250 g/ha): 2
Corn plant response rating ([1]; Preemergence, Rate 500 g/ha): 9
Corn plant response rating ([1]; Rate 62 g/ha, Postemergence): 0
Plant response rating, Corn [1, 19]: 3
Plant response rating, Rice [2, 20]: 0
Rice plant response rating [2, 21]: 0
Plant response rating, Rice [2, 22]: 0
Plant response rating, Soybean [3, 17]: 2
Plant response rating, Soybean [3, 18]: 0
Soybean plant response rating (0 to 10 scale) ([3]; Preemergence, Rate 125 g/ha): 0
Soybean plant response rating ([3]; Preemergence, Rate 250 g/ha): 0
Soybean plant response rating ([3]; Preemergence, Rate 500 g/ha): 0
Soybean plant response rating ([3]; Rate 62 g/ha, Postemergence): 1
Plant response rating, Soybean [3, 19]: 4
Plant response rating, Cocklebur [4, 17]: 0
Plant response rating, Cocklebur [4, 18]: 0
Cocklebur plant response rating (0 to 10 scale) ([4]; Preemergence, Rate 125 g/ha): 0
Cocklebur plant response rating ([4]; Preemergence, Rate 250 g/ha): 0
Cocklebur plant response rating ([4]; Preemergence, Rate 500 g/ha): 0
Cocklebur plant response rating ([4]; Rate 62 g/ha, Postemergence): 0
Plant response rating, Cocklebur [4, 19]: 2
Plant response rating, Redroot pigweed [5, 17]: 0
Plant response rating, Redroot pigweed [5, 18]: 0
Redroot pigweed plant response rating (0 to 10 scale) ([5]; Preemergence, Rate 125 g/ha): 0
Redroot pigweed plant response rating ([5]; Preemergence, Rate 250 g/ha): 10
Redroot pigweed plant response rating ([5]; Preemergence, Rate 500 g/ha): 10
Redroot pigweed plant response rating ([5]; Rate 62 g/ha, Postemergence): 0
Plant response rating, Redroot pigweed [5, 19]: 5
Plant response rating, Crabgrass [6, 17]: 2
Plant response rating, Crabgrass [6, 18]: 7
Crabgrass plant response rating (0 to 10 scale) ([6]; Preemergence, Rate 125 g/ha): 7
Crabgrass plant response rating ([6]; Preemergence, Rate 250 g/ha): 10
Crabgrass plant response rating ([6]; Preemergence, Rate 500 g/ha): 10
Crabgrass plant response rating ([6]; Rate 62 g/ha, Postemergence): 1
Plant response rating, Crabgrass [6, 19]: 6
Plant response rating, Wild oats [7, 17]: 3
Plant response rating, Wild oats [7, 18]: 3
Wild oats plant response rating (0 to 10 scale) ([7]; Preemergence, Rate 125 g/ha): 4
Wild oats plant response rating ([7]; Preemergence, Rate 250 g/ha): 8
Wild oats plant response rating ([7]; Preemergence, Rate 500 g/ha): 10
Wild oats plant response rating ([7]; Rate 62 g/ha, Postemergence): 2
Plant response rating, Wild oats [7, 19]: 7
Plant response rating, Barnyardgrass [8, 20]: 2
Barnyardgrass plant response rating [8, 21]: 2
Plant response rating, Barnyardgrass ([8]; Rate 250 g/ha, Postemergence (flood test species), scale of 0 to 10 where 0 is no effect and 10 is complete control): 3
Plant response rating, Barnyardgrass [8, 22]: 7
Plant response rating, Velvetleaf [9, 17]: 2
Plant response rating, Velvetleaf [9, 18]: 3
Velvetleaf plant response rating (0 to 10 scale) ([9]; Preemergence, Rate 125 g/ha): 3
Velvetleaf plant response rating ([9]; Preemergence, Rate 250 g/ha): 7
Velvetleaf plant response rating ([9]; Preemergence, Rate 500 g/ha): 7
Velvetleaf plant response rating ([9]; Rate 62 g/ha, Postemergence): 2
Plant response rating, Velvetleaf [9, 19]: 6
Plant response rating, Wheat [10, 17]: 3
Plant response rating, Wheat [10, 18]: 0
Wheat plant response rating (0 to 10 scale) ([10]; Preemergence, Rate 125 g/ha): 0
Wheat plant response rating ([10]; Preemergence, Rate 250 g/ha): 0
Wheat plant response rating ([10]; Preemergence, Rate 500 g/ha): 0
Wheat plant response rating ([10]; Rate 62 g/ha, Postemergence): 2
Plant response rating, Wheat [10, 19]: 4
Plant response rating, Sugarbeets [11, 17]: 0
Plant response rating, Sugarbeets [11, 18]: 0
Sugarbeets plant response rating (0 to 10 scale) ([11]; Preemergence, Rate 125 g/ha): 0
Sugarbeets plant response rating ([11]; Preemergence, Rate 250 g/ha): 3
Sugarbeets plant response rating ([11]; Preemergence, Rate 500 g/ha): 6
Sugarbeets plant response rating ([11]; Rate 62 g/ha, Postemergence): 0
Plant response rating, Sugarbeets [11, 19]: 3
Plant response rating, Morningglory [12, 17]: 9
Plant response rating, Morningglory [12, 18]: 0
Morningglory plant response rating (0 to 10 scale) ([12]; Preemergence, Rate 125 g/ha): 0
Morningglory plant response rating ([12]; Preemergence, Rate 250 g/ha): 0
Morningglory plant response rating ([12]; Preemergence, Rate 500 g/ha): 0
Morningglory plant response rating ([12]; Rate 62 g/ha, Postemergence): 2
Plant response rating, Morningglory [12, 19]: 10
Plant response rating, Giant foxtail [13, 17]: 8
Plant response rating, Giant foxtail [13, 18]: 9
Giant foxtail plant response rating (0 to 10 scale) ([13]; Preemergence, Rate 125 g/ha): 10
Giant foxtail plant response rating ([13]; Preemergence, Rate 250 g/ha): 10
Giant foxtail plant response rating ([13]; Preemergence, Rate 500 g/ha): 10
Giant foxtail plant response rating ([13]; Rate 62 g/ha, Postemergence): 3
Plant response rating, Giant foxtail [13, 19]: 9
Plant response rating, Nutsedge [14, 17]: 0
Plant response rating, Nutsedge [14, 18]: 0
Nutsedge plant response rating (0 to 10 scale) ([14]; Preemergence, Rate 125 g/ha): 0
Nutsedge plant response rating ([14]; Preemergence, Rate 250 g/ha): 0
Nutsedge plant response rating ([14]; Preemergence, Rate 500 g/ha): 0
Nutsedge plant response rating ([14]; Rate 62 g/ha, Postemergence): 0
Plant response rating, Nutsedge [14, 19]: 6
Plant response rating, Rape [15, 17]: 0
Plant response rating, Rape [15, 18]: 0
Rape plant response rating (0 to 10 scale) ([15]; Preemergence, Rate 125 g/ha): 0
Rape plant response rating ([15]; Preemergence, Rate 250 g/ha): 2
Rape plant response rating ([15]; Preemergence, Rate 500 g/ha): 7
Rape plant response rating ([15]; Rate 62 g/ha, Postemergence): 0
Plant response rating, Rape [15, 19]: 5
Plant response rating, Ducksalad [16, 20]: 3
Ducksalad plant response rating [16, 21]: 0
Plant response rating, Ducksalad [16, 22]: 4

— US6737383B1, “Herbicidal oxadiazolidines” (priority 1999, dated 2004)
